In brackets after ≈: the same amount, converted by molar mass. Where two headings read alike, the source gives them in different places. Marks after values point to notes of the source that are not given here.
Legend:
Assay type in all cases: cell-based
[1] = tested on: human endocervical adenocarcinoma KB 3.1; assay: MTT-based cytotoxicity assay
Method: (§1) The Minimum Inhibitory Concentration (MIC) of the isolated metabolites (1–8) was evaluated using serial dilution assays in a 96-well microtiter plate against a panel of Gram-positive bacteria, namely Bacillus subtilis DSM 10, Mycobacterium smegmatis ATCC 700084 and Staphylococcus aureus DSM 346; Gram-negative bacteria, including Acinetobacter baumannii DSM 30008, Chromobacterium violaceum DSM 30191, Escherichia coli DSM 1116 and Pseudomonas aeruginosa PA14 and fungal cultures of Candida albicans DSM 1665, Mucor hiemalis DSM 2656, Rhodotorula glutinis DSM 10134, Schizosaccharomyces pombe DSM 70572 and Wickerhamomyces anomalus DSM 6766, according to previously described protocols. The MTT-based cytotoxicity assay was performed against several cancer cell lines (human endocervical adenocarcinoma KB 3.1, mouse fibroblasts L929, squamous cancer A431, breast cancer MCF-7, lung cancer A549, ovary cancer SK-OV-3, and prostate cancer PC-3) in accordance with our previously established protocols.

[2] = tested on: mouse fibroblasts L929; assay: MTT-based cytotoxicity assay; conditions: Mus musculus
Method: as §1

[3] = tested on: Bacillus subtilis DSM 10; assay: MIC serial dilution assay; set-up: key: (-): No inhibition
Method: as §1

[4] = tested on: Acinetobacter baumannii DSM 30008; assay: MIC serial dilution assay; set-up: key: (-): No inhibition; conditions: Acinetobacter baumanii; starting concentration 66.7 μg/mL
Method: as §1

[5] = tested on: Pseudomonas aeruginosa PA14; assay: MIC serial dilution assay; set-up: key: (-): No inhibition; conditions: starting concentration 66.7 μg/mL
Method: as §1

[6] = tested on: Chromobacterium violaceum DSM 30191; assay: MIC serial dilution assay; set-up: key: (-): No inhibition; conditions: starting concentration 66.7 μg/mL
Method: as §1

[7] = tested on: Mucor hiemalis DSM 2656; assay: MIC serial dilution assay; set-up: key: (-): No inhibition
Method: as §1

[8] = tested on: Mycobacterium smegmatis ATCC 700084; assay: MIC serial dilution assay; set-up: key: (-): No inhibition; conditions: starting concentration 66.7 μg/mL
Method: as §1

[9] = tested on: Wickerhamomyces anomalus DSM 6766; assay: MIC serial dilution assay; set-up: key: (-): No inhibition
Method: as §1

[10] = tested on: Candida albicans DSM 1665; assay: MIC serial dilution assay; set-up: key: (-): No inhibition; conditions: starting concentration 66.7 μg/mL
Method: as §1

[11] = tested on: Schizosaccharomyces pombe DSM 70572; assay: MIC serial dilution assay; set-up: key: (-): No inhibition
Method: as §1

[12] = tested on: Escherichia coli DSM 1116; assay: MIC serial dilution assay; set-up: key: (-): No inhibition; conditions: starting concentration 66.7 μg/mL
Method: as §1

[13] = tested on: Rhodotorula glutinis DSM 10134; assay: MIC serial dilution assay; set-up: key: (-): No inhibition; conditions: Rhodoturula glutinis, starting concentration 66.7 μg/mL
Method: as §1

[14] = tested on: Staphylococcus aureus DSM 346; assay: MIC serial dilution assay; set-up: key: (-): No inhibition
Method: as §1

[15] = tested on: panel of bacteria and fungi; assay: Antimicrobial serial dilution assay, whole panel; conditions: result in words
Method: as §1

[16] = tested on: ovary cancer SK-OV-3; assay: MTT-based cytotoxicity assay; conditions: Homo sapiens, SK-OV-3
Method: as §1

[17] = tested on: breast cancer MCF-7; assay: MTT-based cytotoxicity assay; conditions: Homo sapiens, MCF7
Method: as §1

[18] = tested on: lung cancer A549; assay: MTT-based cytotoxicity assay; conditions: Homo sapiens
Method: as §1

[19] = tested on: prostate cancer PC-3; assay: MTT-based cytotoxicity assay
Method: as §1

[20] = tested on: squamous cancer A431; assay: MTT-based cytotoxicity assay; conditions: Homo sapiens, A-431
Method: as §1

[21] = tested on: mammalian cell lines; assay: cells; conditions: A431, MCF-7, A549, SKOV-3 and PC-3; read-out: IC50, range over five other mammalian cell lines
Method: as §1

[22] = Homo sapiens, KB 3-1, KB3.1, starting concentration 37 µg/mL, read-out: IC50
[23] = starting concentration 37 µg/mL, read-out: IC50
[24] = DSM10, starting concentration 66.7 μg/mL, read-out: MIC
[25] = DSM2656, starting concentration 66.7 μg/mL, read-out: MIC
[26] = starting concentration 66.7 μg/mL
[27] = DSM70572, starting concentration 66.7 μg/mL, read-out: MIC
[28] = Rhodotorula glutinis, DSM10134, read-out: MIC
[29] = DSM346, starting concentration 66.7 μg/mL, read-out: MIC

Row | SMILES | MIC [3, 24] [µg/mL] | MIC [4] | MIC [5] | MIC [6] | MIC [7, 25] [µg/mL] | MIC [8] | MIC [9, 26] | MIC [10] | MIC [12] | MIC [14, 29] [µg/mL] | MIC [11, 26] | MIC [13] | IC50 [1, 22] [µM] | IC50 [2, 23] [µM] | further results
1 | NC[C@H]1O[C@H](O[C@H]2[C@H](O)[C@@H](O[C@H]3O[C@H](CO)[C@@H](O)[C@H](N)[C@H]3O)[C@H](N)C[C@@H]2N)[C@H](O)[C@@H](O)[C@@H]1O [Kanamycin, reference compound] |  |  |  |  |  | 1.7 ^k µg/mL |  |  |  |  |  |  |  |  | 
2 | CC(C)=CCc1ccc(O)c2c1C(O)(c1cc(C)cc3c1OC(C(C)(C)O)CO3)OC2=O (stereo not drawn) [Compound 2, isoprenylisobenzofuran B] |  | - | - | - |  | - | - | - | - |  | - | - | > 84 | > 84 | IC50 ([1]; KB3.1, starting concentration 37 µg/mL): slight inhibition; antimicrobial activity against the tested microorganisms [15]: no activity; MIC [3, 26]: -; MIC [7, 26]: -; MIC [14, 26]: -
3 | C[C@@H]1[C@H](O)[C@@H](C)/C=C/C=C/CC/C=C/C=C/C=C/C=C/C(O[C@H]2O[C@H](C)[C@@H](O)[C@H](N)[C@@H]2O)CC2O[C@](O)(CC(O)C(O)CCC(O)CC(O)CC(O)CC(=O)O[C@H]1C)CC(O)C2C(=O)O (stereo partly drawn) [Nystatin, reference compound] |  |  |  |  |  |  | 8.3 ^n µg/mL | 16.6 ^n µg/mL |  |  | 8.3 ^n µg/mL | 4.2 ^n µg/mL |  |  | MIC [7, 26]: 8.3 ^n µg/mL; MIC ([7]; starting concentration 66.7 μg/mL, listed as nystatin): 8.3 µg/mL (≈ 8.96 µM)
4 | C/C(=C\c1csc(C)n1)[C@@H]1C[C@@H]2O[C@]2(C)CCC[C@H](C)[C@H](O)[C@@H](C)C(=O)C(C)(C)[C@@H](O)CC(=O)O1 [Epothilone B, reference compound] |  |  |  |  |  |  |  |  |  |  |  |  |  |  | IC50 [16]: 9.9e-05 µM; IC50 [17]: 6.1e-05 µM; IC50 ([1]; Homo sapiens, KB 3-1): 4.5e-05 µM; IC50 [18]: 6.9e-05 µM; IC50 [19]: 7.3e-05 µM; IC50 [20]: 5.5e-05 µM; IC50 [2]: 0.00043 µM

The next lines start with results.

Row | MIC [3, 24] [µg/mL] | MIC [4] | MIC [5] | MIC [6] | MIC [7, 25] [µg/mL] | MIC [8] | MIC [9, 26] | MIC [10] | MIC [12] | MIC [14, 29] [µg/mL] | MIC [11, 26] | MIC [13] | SMILES | IC50 [1, 22] [µM] | IC50 [2, 23] [µM] | further results
5 | 66.6 | - | - | - | 66.6 | - | - | - | - | 66.6 |  |  | CC(C)=CCc1ccc(O)c2c1C(c1cc(C)cc3c1O[C@H](C(C)(C)O)CO3)NC2=O (mixture of isomers) [Compound 5, diaporisoindole A/B] | 22 | 54.4 | MIC [11, 27]: 33.3 µg/mL; MIC [13, 28]: 66.6 µg/mL
6 | 33.3 | - | - | - | 66.6 | - | - | - | - | 33.3 | - | - | CC(C)=CCc1ccc(O)c2c1C(O)(c1cc(C)cc3c1O[C@H](C(C)(C)O)CO3)OC2 (mixture of isomers) [Compound 3, isoprenylisobenzofuran C1/C2] | 32.9 | 51.6 | 
7 | 16.6 (≈ 39.1 µM) | - | - | - | 16.6 (≈ 39.1 µM) | - |  | - | - | 16.6 (≈ 39.1 µM) |  |  | CC(C)=CCc1ccc(O)c(C=O)c1C(=O)c1cc(C)cc2c1OC(C(C)(C)O)CO2 (stereo not drawn) [Compound 6, tenellone B] | 20 | 49.5 | IC50 ([16]; SKOV-3, starting concentration 37 µg/mL, read-out: IC50): 42.5 µM; IC50 ([17]; MCF-7, starting concentration 37 µg/mL, read-out: IC50): 17.7 µM; IC50 [18, 23]: 20.8 µM; IC50 ([19]; PC-3, starting concentration 37 µg/mL, read-out: IC50): 17.9 µM; IC50 ([20]; A431, starting concentration 37 µg/mL, read-out: IC50): 19.3 µM; IC50 [21]: 17.7 to 42.5 µM; MIC ([9]; Hansenula anomala, DSM6766, starting concentration 66.7 μg/mL, read-out: MIC): 66.6 µg/mL (≈ 157 µM); MIC [11, 27]: 66.6 µg/mL (≈ 157 µM); MIC [13, 28]: 16.6 µg/mL (≈ 39.1 µM)

— article PMC10381184, “Unprecedented Antimicrobial and Cytotoxic Polyketides from Cultures of Diaporthe africana sp. nov” (Journal of Fungi, 2023)
